{"source": "patent US9149475B2", "about": "“Protein kinase C inhibitors and uses thereof” (Rigel Pharmaceuticals, Inc., priority 2009, dated 2015)", "test_system": "Human primary T cells", "test": "IL-2 ELISA, human primary T cell, anti-CD3+CD28+ (whole cell assay)", "assay_type": "cell-based", "settings": "Homo sapiens, T-cell, 24 h, human primary T cells stimulated with anti-CD3 + anti-CD28, 24 hours", "procedure": "(§1) Human primary T cells were prepared as follows. Whole blood was obtained from a healthy volunteer, mixed 1:1 with PBS, layered on to Ficoll Hypaque (Amersham Pharmacia Biotech, Piscataway, N.J., Catalog #17-1440-03) in 2:1 blood/PBS:ficoll ratio and centrifuged for 30 minutes at 4° C. at 1750 rpm. The cells at the serum:ficoll interface were recovered and washed twice with 5 volumes of PBS. These freshly isolated human peripheral blood mononuclear cells were cultured in Yssel's medium containing 40 U/mL IL2 in a flask pre-coated with 1 μg/mL αCD3 and 5 μg/mL αCD28 (Anti-Human CD3, BD Pharmingen Catalog #555336, Anti-Human CD28, Beckman Coulter Catalog #IM1376). The cells were stimulated for 3-4 days, then transferred to a fresh flask and maintained in RPMI (RPMI-1640 with L-Glutamine; Mediatech, Inc., Herndon Va., cat. #10-040-CM) with 10% FBS and 40 U/mL IL-2. The primary T-cells were then washed twice with PBS to remove the IL-2.\nHuman primary T cells (100,000 cells per well) were pre-incubated with or without test compound in Yssel's medium for 1 hr at 37° C. Cells were then stimulated by transferring them to round-bottom 96-well plates pre-coated with 1 μg/ml μCD3 and 5 μg/ml μCD28. For counter assay, cells were instead stimulated by adding 8× stock solutions of PMA and ionomycin in Yssels (for final concentrations of 0.5 ng/ml PMA and 0.1 μM ionomycin, both from Calbiochem). Cells were incubated at 37° C. for 24 hours before 100 μL supernatants were harvested for quantification of IL-2 by ELISA using Human IL-2 Duoset ELISA Kit from R and D Systems, Cat. #DY202E.\nas §1, with “Human primary T cell isolation and culture: Human primary” for “Human primary”, “for 30 min at 4°” for “for 30 minutes at 4°”, “at the serum: ficoll interface were” for “at the serum:ficoll interface were”\nPrimary T cell stimulation and IL2 ELISA: Human primary T cells (100,000 cells per well) were pre-incubated with or without test compound in Yssel's medium for 1 hr at 37° C. Cells were then stimulated by transferring them to round-bottom 96-well plates pre-coated with 1 μg/ml αCD3 and 5 μg/ml αCD28. For counter assay, cells were instead stimulated by adding 8× stock solutions of PMA and ionomycin in Yssels (for final concentrations of 0.5 ng/ml PMA and 0.1 μM ionomycin, both from Calbiochem). Cells were incubated at 37° C. for 24 hours before 100 μL supernatants were harvested for quantification of IL-2 by ELISA using Human IL-2 Duoset ELISA Kit from R and D Systems, Cat. #DY202E."}
{"smiles": "CC1(C)CC(Nc2nc(Nc3ccc(OCCn4ccnn4)c(OC(F)F)c3)ncc2F)CC(C)(C)N1", "note": "[Compound I-24, N2-(4-(2-(1H-1,2,3-triazol-1-yl)ethoxy)-3-(difluoromethoxy)phenyl)-5-fluoro-N4-(2,2,6,6-tetramethylpiperidin-4-yl)pyrimidine-2,4-diamine]", "values": [{"measurement": "IC50", "value": "0.5 to 1", "unit": "µM"}]}
{"smiles": "CC1(C)CC(Nc2nc(Nc3ccc(OCCn4cncn4)c(OC(F)F)c3)ncc2F)CC(C)(C)N1", "note": "[Compound I-25, N2-(4-(2-(1H-1,2,4-triazol-1-yl)ethoxy)-3-(difluoromethoxy)phenyl)-5-fluoro-N4-(2,2,6,6-tetramethylpiperidin-4-yl)pyrimidine-2,4-diamine]", "values": [{"measurement": "IC50", "value": "> 1", "unit": "µM"}]}
{"smiles": "CN1C(C)(C)CC(Nc2nc(Nc3ccc(OCCn4ccnn4)c(OC(F)F)c3)ncc2F)CC1(C)C", "note": "[Compound I-26, N2-(4-(2-(1H-1,2,3-triazol-1-yl)ethoxy)-3-(difluoromethoxy)phenyl)-5-fluoro-N4-(1,2,2,6,6-pentamethylpiperidin-4-yl)pyrimidine-2,4-diamine]", "values": [{"measurement": "IC50", "value": "0.25 to 0.5", "unit": "µM"}]}
{"smiles": "CN1C(C)(C)CC(Nc2nc(Nc3ccc(OCCn4cncn4)c(OC(F)F)c3)ncc2F)CC1(C)C", "note": "[Compound I-27, N2-(4-(2-(1H-1,2,4-triazol-1-yl)ethoxy)-3-(difluoromethoxy)phenyl)-5-fluoro-N4-(1,2,2,6,6-pentamethylpiperidin-4-yl)pyrimidine-2,4-diamine]", "values": [{"measurement": "IC50", "value": "< 0.25", "unit": "µM"}]}
{"smiles": "CC1(C)CC(Nc2nc(Nc3cc(OCCn4cncn4)cc(C(F)(F)F)c3)ncc2F)CC(C)(C)N1", "note": "[Compound I-28, N2-(3-(2-(1H-1,2,4-triazol-1-yl)ethoxy)-5-(trifluoromethyl)phenyl)-5-fluoro-N4-(2,2,6,6-tetramethylpiperidin-4-yl)pyrimidine-2,4-diamine]", "values": [{"measurement": "IC50", "value": "0.5 to 1", "unit": "µM"}]}
{"smiles": "CN1C(C)(C)CC(Nc2nc(Nc3cc(OCCn4cncn4)cc(C(F)(F)F)c3)ncc2F)CC1(C)C", "note": "[Compound I-29, N2-(3-(2-(1H-1,2,4-triazol-1-yl)ethoxy)-5-(trifluoromethyl)phenyl)-5-fluoro-N4-(1,2,2,6,6-pentamethylpiperidin-4-yl)pyrimidine-2,4-diamine]", "values": [{"measurement": "IC50", "value": "0.5 to 1", "unit": "µM"}]}
{"smiles": "CC1(C)CC(Nc2nc(Nc3ccc(OCCN4CCCC4=O)c(OC(F)F)c3)ncc2F)CC(C)(C)N1", "note": "[Compound I-30, 1-(2-(4-(4-(2,2,6,6-tetramethylpiperidin-4-ylamino)-5-fluoropyrimidin-2-ylamino)-2-(difluoromethoxy)phenoxy)ethyl)pyrrolidin-2-one]", "values": [{"measurement": "IC50", "value": "0.5 to 1", "unit": "µM"}]}
{"smiles": "CN1C(C)(C)CC(Nc2nc(Nc3ccc(OCCN4CCCC4=O)c(OC(F)F)c3)ncc2F)CC1(C)C", "note": "[Compound I-31, 1-(2-(4-(4-(1,2,2,6,6-pentamethylpiperidin-4-ylamino)-5-fluoropyrimidin-2-ylamino)-2-(difluoromethoxy)phenoxy)ethyl)pyrrolidin-2-one]", "values": [{"measurement": "IC50", "value": "< 0.25", "unit": "µM"}]}
{"smiles": "CC1(C)CC(Nc2nc(Nc3cc(OCCn4ccnn4)cc(C(F)(F)F)c3)ncc2F)CC(C)(C)N1", "note": "[Compound I-32, N2-(3-(2-(1H-1,2,3-triazol-1-yl)ethoxy)-5-(trifluoromethyl)phenyl)-5-fluoro-N4-(2,2,6,6-tetramethylpiperidin-4-yl)pyrimidine-2,4-diamine]", "values": [{"measurement": "IC50", "value": "0.5 to 1", "unit": "µM"}]}
{"smiles": "CN1C(C)(C)CC(Nc2nc(Nc3cc(OCCn4ccnn4)cc(C(F)(F)F)c3)ncc2F)CC1(C)C", "note": "[Compound I-33, N2-(3-(2-(1H-1,2,3-triazol-1-yl)ethoxy)-5-(trifluoromethyl)phenyl)-5-fluoro-N4-(1,2,2,6,6-pentamethylpiperidin-4-yl)pyrimidine-2,4-diamine]", "values": [{"measurement": "IC50", "value": "0.25 to 0.5", "unit": "µM"}]}
{"smiles": "CC1(C)CC(Nc2nc(Nc3ccc(OCCn4ccnn4)c(OC(F)F)c3)ncc2C#N)CC(C)(C)N1", "note": "[Compound I-34, 4-(2,2,6,6-tetramethylpiperidin-4-ylamino)-2-(4-(2-(1H-1,2,3-triazol-1-yl)ethoxy)-3-(difluoromethoxy)phenylamino)pyrimidine-5-carbonitrile]", "values": [{"measurement": "IC50", "value": "0.5 to 1", "unit": "µM"}]}
{"smiles": "CC1(C)CC(Nc2nc(Nc3cc(F)cc(OCCCn4cccc4)c3)ncc2F)CC(C)(C)N1", "note": "[Compound I-35, N2-(3-(3-(1H-pyrrol-1-yl)propoxy)-5-fluorophenyl)-5-fluoro-N4-(2,2,6,6-tetramethylpiperidin-4-yl)pyrimidine-2,4-diamine]", "values": [{"measurement": "IC50", "value": "0.5 to 1", "unit": "µM"}]}
{"smiles": "CN1C(C)(C)CC(Nc2nc(Nc3cc(F)cc(OCCCn4cccc4)c3)ncc2F)CC1(C)C", "note": "[Compound I-36, N2-(3-(3-(1H-pyrrol-1-yl)propoxy)-5-fluorophenyl)-5-fluoro-N4-(1,2,2,6,6-pentamethylpiperidin-4-yl)pyrimidine-2,4-diamine]", "values": [{"measurement": "IC50", "value": "0.5 to 1", "unit": "µM"}]}
{"smiles": "CC1(C)CC(Nc2nc(Nc3cc(F)cc(OCCN4CCCC4=O)c3)ncc2F)CC(C)(C)N1", "note": "[Compound I-37, 1-(2-(3-(4-(2,2,6,6-tetramethylpiperidin-4-ylamino)-5-fluoropyrimidin-2-ylamino)-5-fluorophenoxy)ethyl)pyrrolidin-2-one]", "values": [{"measurement": "IC50", "value": "> 1", "unit": "µM"}]}
{"smiles": "CN1C(C)(C)CC(Nc2nc(Nc3cc(F)cc(OCCN4CCCC4=O)c3)ncc2F)CC1(C)C", "note": "[Compound I-38, 1-(2-(3-(4-(1,2,2,6,6-pentamethylpiperidin-4-ylamino)-5-fluoropyrimidin-2-ylamino)-5-fluorophenoxy)ethyl)pyrrolidin-2-one]", "values": [{"measurement": "IC50", "value": "0.5 to 1", "unit": "µM"}]}
{"smiles": "CC1(C)CC(Nc2nc(Nc3cc(F)cc(OCCn4cncn4)c3)ncc2F)CC(C)(C)N1", "note": "[Compound I-39, N2-(3-(2-(1H-1,2,4-triazol-1-yl)ethoxy)-5-fluorophenyl)-5-fluoro-N4-(2,2,6,6-tetramethylpiperidin-4-yl)pyrimidine-2,4-diamine]", "values": [{"measurement": "IC50", "value": "> 1", "unit": "µM"}]}
{"smiles": "CN1C(C)(C)CC(Nc2nc(Nc3cc(F)cc(OCCn4cncn4)c3)ncc2F)CC1(C)C", "note": "[Compound I-40, N2-(3-(2-(1H-1,2,4-triazol-1-yl)ethoxy)-5-fluorophenyl)-5-fluoro-N4-(1,2,2,6,6-pentamethylpiperidin-4-yl)pyrimidine-2,4-diamine]", "values": [{"measurement": "IC50", "value": "0.5 to 1", "unit": "µM"}]}
{"smiles": "CN1C(C)(C)CC(Nc2nc(Nc3ccc(OCCCn4cccc4)c(OC(F)F)c3)ncc2F)CC1(C)C", "note": "[Compound I-41, N2-(4-(3-(1H-pyrrol-1-yl)propoxy)-3-(difluoromethoxy)phenyl)-5-fluoro-N4-(1,2,2,6,6-pentamethylpiperidin-4-yl)pyrimidine-2,4-diamine]", "values": [{"measurement": "IC50", "value": "< 0.25", "unit": "µM"}]}
{"smiles": "CC1(C)CC(Nc2nc(Nc3ccc(OCCCn4cccc4)c(OC(F)F)c3)ncc2F)CC(C)(C)N1", "note": "[Compound I-42, N2-(4-(3-(1H-pyrrol-1-yl)propoxy)-3-(difluoromethoxy)phenyl)-5-fluoro-N4-(2,2,6,6-tetramethylpiperidin-4-yl)pyrimidine-2,4-diamine]", "values": [{"measurement": "IC50", "value": "< 0.25", "unit": "µM"}]}
{"smiles": "CN1C(C)(C)CC(Nc2nc(Nc3ccc(Oc4ccncc4)c(OC(F)F)c3)ncc2F)CC1(C)C", "note": "[Compound I-43, N2-(3-(difluoromethoxy)-4-(pyridin-4-yloxy)phenyl)-5-fluoro-N4-(1,2,2,6,6-pentamethylpiperidin-4-yl)pyrimidine-2,4-diamine]", "values": [{"measurement": "IC50", "value": "> 1", "unit": "µM"}]}
{"smiles": "CN1C(C)(C)CC(Nc2nc(Nc3ccc(Oc4cccnc4)c(OC(F)F)c3)ncc2F)CC1(C)C", "note": "[Compound I-44, N2-(3-(difluoromethoxy)-4-(pyridin-3-yloxy)phenyl)-5-fluoro-N4-(1,2,2,6,6-pentamethylpiperidin-4-yl)pyrimidine-2,4-diamine]", "values": [{"measurement": "IC50", "value": "0.25 to 0.5", "unit": "µM"}]}
{"smiles": "CC1(C)CC(Nc2nc(Nc3ccc(Oc4cccnc4)c(OC(F)F)c3)ncc2F)CC(C)(C)N1", "note": "[Compound I-45, N2-(3-(difluoromethoxy)-4-(pyridin-3-yloxy)phenyl)-5-fluoro-N4-(2,2,6,6-tetramethylpiperidin-4-yl)pyrimidine-2,4-diamine]", "values": [{"measurement": "IC50", "value": "0.25 to 0.5", "unit": "µM"}]}
{"smiles": "CN1C(C)(C)CC(Nc2nc(Nc3ccc(OCCN4CCCC4)c(OC(F)F)c3)ncc2F)CC1(C)C", "note": "[Compound I-46, N2-(4-(2-(pyrrolidin-1-yl)ethoxy)-3-(difluoromethoxy)phenyl)-5-fluoro-N4-(1,2,2,6,6-pentamethylpiperidin-4-yl)pyrimidine-2,4-diamine]", "values": [{"measurement": "IC50", "value": "< 0.25", "unit": "µM"}]}
